In US4963589A, “Methods for treating Giardia lamblia” (The University of North Carolina at Chapel Hill, priority 1988, dated 1990):
Where a name gives a salt, the structure may show the parent alone. Read-outs that look alike come from different tables or passages of the source. Each block holds one compound with its values, some of them ahead of it.

Tests used:
[1] = test system: Giardia lamblia trophozoites, WB strain (ATCC #30957); assay: 3H-thymidine incorporation drug sensitivity assay, Giardia lamblia WB strain (ATCC 30957); format: cell-based; details: for IC50: Giardia duodenalis; for efficacy against Giardia lamblia (in words): qualitative statements on the results
Description: Giardia lamblia trophozoites were obtained from logarithmically growing stock cultures. Into the wells of a 96 well U-bottom tissue culture plate (Costar) was placed 100 μl of modified TYI-S-33 medium containing 2.5×10^4 trophozoites. The tissue culture plate was maintained in an anerobic environment by placing it inside a plastic box modified to allow nitrogen to be passed through the box via inlet and outlet tubing which could be clamped shut. Nitrogen was passed through the box for 2 minutes and the container was placed in a 37° C. incubator gassed with 5% CO2 in air.
Varying concentrations of ^3 H-thymidine (0.5, 1.0, 1.5 and 2.0 μCi/well) were added to wells containing 2.5×10^4 Giardia lamblia trophozoites at 2 hour intervals so that it might remain in contact with the trophozoites for 2 to 24 hours. After 24 hours of incubation, the cells were harvested with a multimash cell harvester by washing vigorously with ice-cold Hank's Balanced Salt Solution. Samples were collected on Whatman glass microfiber paper. the paper was air dried, samples were placed in 7 ml scintillation vials and the incorporation of ^3 H-thymidine was determined by liquid scintillation counting. Mean values were calculated from 5 replicates for each time point and concentration.
One hundred μl of modified TYI-S-33 medium containing 2.5×10^4trophozoites was placed into each well of a 96-well U-bottom plate. The plates were incubated under anaerobic conditions for 24 hours. After 24 hours, the compounds to be tested were prepared from the 2 mM stock solutions and 100 μl each solution was added to yield concentrations of 1, 10, 100 and 1000 μMin the wells. Ten μl of a 150 μCi/ml solution of ^3 H-thymidine (SA=10 Ci/mmole) in modified TYI-S-33 was added 6 hours after the addition of drug to yield a final concentration of 1.5 μCi/well. After an additional 18 hours of incubation the cells were harvested. Five replicates were run for each drug concentration and the mean values determined. Non-specific binding of the ^3 H-thymidine to the microfiber paper was determined through the use of control wells to which no organisms were added. The activities of compounds tested were determined by comparing the incorporation of ^ 3 H-thymidine in the wells to which the compounds were added to that of wells of drug free controls. The drug concentration required to inhibit 50% incorporation of ^3 H-thymidine (IC50) was determined (Chou, 1974).

[2] = test system: Giardia lamblia Stock BRIS/83/HEPU/106; details: Table IV; Stock BRIS/83/HEPU/106 (Boreham et al., 1984); read-out: IC50 determined by 3H-thymidine incorporation; cited from earlier work
[3] = test system: Giardia lamblia Stock BRIS/82/HEPU/41; details: Table IV; Stock BRIS/82/HEPU/41 (Boreham et al., 1984); read-out: IC50 determined by 3H-thymidine incorporation; cited from earlier work
[4] = test system: Giardia lamblia Stock BRIS/83/HEPU/120; details: Table IV; Stock BRIS/83/HEPU/120 (Boreham et al., 1984); read-out: IC50 determined by 3H-thymidine incorporation; cited from earlier work
[5] = test system: Giardia lamblia Stock BRI/83/HEPU/136; details: Table IV; Stock BRI/83/HEPU/136 (Boreham et al., 1984); read-out: IC50 determined by 3H-thymidine incorporation; cited from earlier work
[6] = ATCC30957, Table I, 50% inhibition of 3H-thymidine incorporation, WB strain, 24 h with drug, read-out: IC50, Giardia lamblia vs. para-amidines
[7] = ATCC30957, Table IV, Stock WB (ATCC 30957), read-out: IC50 determined by 3H-thymidine incorporation
[8] = ATCC30957, Table III, 50% inhibition of 3H-thymidine incorporation, WB strain, 24 h with drug, read-out: IC50, Giardia lamblia vs. para-imidazolines
[9] = ATCC30957, read-out: IC50, Giardia lamblia vs. para-amidines
[10] = ATCC30957, Table II, 50% inhibition of 3H-thymidine incorporation, WB strain, 24 h with drug, read-out: IC50, Giardia lamblia vs. meta-amidines

- IC50 [1, 6]: 96.8 µM
Structure (SMILES): N=C(N)c1ccc(OCCCCOc2ccc(C(=N)N)cc2N)c(N)c1 [Example 9]

- IC50 [1, 7]: 1.41 µM
Structure (SMILES): CCN(CC)CCCC(C)Nc1c2ccc(Cl)cc2nc2ccc(OC)cc12 (centres unmarked) [Quinacrine . HCl]
- IC50 [2]: 1.18 µM
- IC50 [3]: 1.09 µM
- IC50 [4]: 1.59 µM
- IC50 [5]: 4.02 µM

- IC50 [1, 8]: 26 µM
Structure (SMILES): c1cc(C2=NCCN2)ccc1OCCCCOc1ccc(C2=NCCN2)cc1 [Example 32]

Structure (SMILES): N=C(N)c1ccc(NCCCCCNc2ccc(C(=N)N)cc2[N+](=O)[O-])c([N+](=O)[O-])c1 [Example 22]
- IC50 [1, 9]: 29.9 µM

- IC50 [1, 8]: 373 µM
Structure (SMILES): CN1CCN=C1c1ccc(OCCCCCOc2ccc(C3=NCCN3C)cc2)cc1 [Example 35]

- IC50 [1, 6]: 108 µM
Structure (SMILES): N=C(N)c1ccc(NCCCCNc2ccc(C(=N)N)cc2N)c(N)c1 [Example 14]

- IC50 [1, 6]: 50.7 µM
Structure (SMILES): N=C(N)c1ccc(NCCCCNc2ccc(C(=N)N)cc2)cc1 [Example 13]

Structure (SMILES): N=C(N)c1ccc(OCCCCCOc2ccc(C(=N)N)cc2)cc1 [Example 15, reference compound]
- IC50 [1, 9]: 76.5 µM
- efficacy against Giardia lamblia (in words) [1]: moderately effective

- IC50 [1, 6]: 1180 µM
Structure (SMILES): N=C(N)c1ccc(OCCOc2ccc(C(=N)N)cc2N)c(N)c1 [Example 1]

- IC50 [1, 6]: 3.2 µM
Structure (SMILES): COc1cc(C(=N)N)ccc1OCCCOc1ccc(C(=N)N)cc1OC [Example 5]

- IC50 [1, 6]: 38.7 µM
Structure (SMILES): N=C(N)c1ccc(OCCCCCCOc2ccc(C(=N)N)cc2N)c(N)c1 [Example 24]

- IC50 [1, 7]: 3.65 µM
Structure (SMILES): Cc1ncc([N+](=O)[O-])n1CCO [Metronidazole]
- IC50 [2]: 0.91 µM
- IC50 [3]: 2.14 µM
- IC50 [4]: 1.08 µM
- IC50 [5]: 2.21 µM

- IC50 [1, 6]: 68.2 µM
Structure (SMILES): N=C(N)c1ccc(NCCCNc2ccc(C(=N)N)cc2)cc1 [Example 6]

- IC50 [1, 6]: 40.6 µM
Structure (SMILES): N=C(N)c1ccc(NCCCCCNc2ccc(C(=N)N)cc2)cc1 [Example 20]

- IC50 [1, 8]: 39.2 µM
Structure (SMILES): c1cc(C2=NCCN2)ccc1OCCCCCOc1ccc(C2=NCCN2)cc1 [Example 34]

- IC50 [1, 6]: 27.7 µM
Structure (SMILES): N=C(N)c1ccc(OCCCCOc2ccc(C(=N)N)cc2Cl)c(Cl)c1 [Example 12]

- IC50 [1, 6]: 16.3 µM
Structure (SMILES): N=C(N)c1ccc(OCCCCCOc2ccc(C(=N)N)cc2Cl)c(Cl)c1 [Example 19]

- IC50 [1, 8]: 25.4 µM
Structure (SMILES): COc1cc(C2=NCCN2)ccc1OCCCOc1ccc(C2=NCCN2)cc1OC [Example 31]
- efficacy against Giardia lamblia (in words) [1]: slightly less efficacious than the amidine counterpart of Example 5

Structure (SMILES): N=C(N)c1ccc(NCCCNc2ccc(C(=N)N)cc2[N+](=O)[O-])c([N+](=O)[O-])c1 [Example 7]
- IC50 [1, 9]: 84.2 µM

- IC50 [1, 8]: 346 µM
Structure (SMILES): CN1CCN=C1c1ccc(OCCCCOc2ccc(C3=NCCN3C)cc2)cc1 [Example 33]

- IC50 [1, 6]: 21.9 µM
Structure (SMILES): N=C(N)c1ccc(NCCCCCCNc2ccc(C(=N)N)cc2N)c(N)c1 [Example 26]

- IC50 [1, 8]: 47.1 µM
Structure (SMILES): COc1cc(C2=NCCN2)ccc1OCCCCCOc1ccc(C2=NCCN2)cc1OC [Example 36]

- IC50 [1, 6]: 24 µM
Structure (SMILES): COc1cc(C(=N)N)ccc1OCCCCCOc1ccc(C(=N)N)cc1OC [Example 18]

- IC50 [1, 10]: 84.2 µM
Structure (SMILES): N=C(N)c1cccc(OCCCCCCOc2cccc(C(=N)N)c2)c1 [Example 30]

- IC50 [1, 6]: 4.2 µM
Structure (SMILES): N=C(N)c1ccc(NCCCCCCNc2ccc(C(=N)N)cc2)cc1 [Example 25]

- IC50 [1, 6]: 66.3 µM
Structure (SMILES): N=C(N)c1ccc(OCCCCCOc2ccc(C(=N)N)cc2N)c(N)c1 [Example 16]

- IC50 [1, 6]: 48.6 µM
Structure (SMILES): N=C(N)c1ccc(NCCCCCNc2ccc(C(=N)N)cc2N)c(N)c1 [Example 21]

- IC50 [1, 10]: 106 µM
Structure (SMILES): N=C(N)c1cccc(OCCCCOc2cccc(C(=N)N)c2)c1 [Example 28]

- IC50 [1, 10]: 560 µM
Structure (SMILES): N=C(N)c1cccc(OCCCOc2cccc(C(=N)N)c2)c1 [Example 27]

- IC50 [1, 6]: 744 µM
Structure (SMILES): N=C(N)c1ccc(NCCNc2ccc(C(=N)N)cc2N)c(N)c1 [Example 2]

- IC50 [1, 6]: 61.6 µM
Structure (SMILES): N=C(N)c1ccc(OCCCCOc2ccc(C(=N)N)cc2)cc1 [Example 8]

- IC50 [1, 6]: 68.8 µM
Structure (SMILES): COc1cc(C(=N)N)ccc1OCCCCOc1ccc(C(=N)N)cc1OC [Example 11]

- IC50 [1, 6]: 15.4 µM
Structure (SMILES): N=C(N)c1ccc(OCCCOc2ccc(C(=N)N)cc2N)c(N)c1 [Example 4]

Structure (SMILES): N=C(N)c1ccc(OCCCCCOc2ccc(C(=N)N)cc2[N+](=O)[O-])c([N+](=O)[O-])c1 [Example 17]
- IC50 [1, 9]: 26.1 µM

- IC50 [1, 6]: 34.3 µM
Structure (SMILES): N=C(N)c1ccc(OCCCCCCOc2ccc(C(=N)N)cc2)cc1 [Example 23]

Structure (SMILES): N=C(N)c1ccc(OCCCCOc2ccc(C(=N)N)cc2[N+](=O)[O-])c([N+](=O)[O-])c1 [Example 10]
- IC50 [1, 9]: 53.2 µM

- IC50 [1, 6]: 12.3 µM
Structure (SMILES): N=C(N)c1ccc(OCCCOc2ccc(C(=N)N)cc2)cc1 [Example 3]

- IC50 [1, 7]: 1.9 µM
Structure (SMILES): O=C1OCCN1N=Cc1ccc([N+](=O)[O-])o1 [Furazolidone]
- IC50 [2]: 0.74 µM
- IC50 [3]: 0.6 µM
- IC50 [4]: 2.5 µM
- IC50 [5]: 0.43 µM

- IC50 [1, 10]: 55.8 µM
Structure (SMILES): N=C(N)c1cccc(OCCCCCOc2cccc(C(=N)N)c2)c1 [Example 29]
